Experimental data published in patent publication US20200360352A1, “USE OF RIFAMYCIN-NITROIMIDAZOLE COUPLING MOLECULE” (priority 2019, published 2020).
≈ marks a conversion by molar mass, not a printed value. Like-named read-outs stand apart in the source and are kept apart here.

Assays:
Mycobacterium kansasii [1] = experiment: MBC, plating of MIC wells and CFU count; type: cell-based; conditions: read-out: Minimum Bactericidal Concentration (MBC)
Mycobacterium abscessus [2] = experiment: MIC, micro broth dilution with resazurin readout; type: cell-based; conditions: Mycobacteroides abscessus, read-out: Minimum Inhibitory Concentration (MIC)
Mycobacterium avium [3] = experiment: MIC, micro broth dilution with resazurin readout; type: cell-based; conditions: read-out: Minimum Inhibitory Concentration (MIC)
Mycodacterium chelonei = experiment: MIC, micro broth dilution with resazurin readout; type: cell-based; conditions: MH Culture Medium; Chelonei (standard strain); read-out: Minimum Inhibitory Concentration (MIC)
NTM = experiment: In-vitro activity against NTM, overall conclusion; type: cell-based, nontuberculous mycobacteria; conditions: overall conclusion from Tables 1-3
Description: In this embodiment, an inhibitory test is performed on pathogenic bacteria, i.e. Mycobacterium avium, Mycobacterium abscessus and Mycobacterium kansasii belonging to the nontuberculous mycobacteria using the rifamycin-nitroimidazole coupling molecule of the present invention and positive controls, and then Minimum Inhibitory Concentration (MIC) and Minimum Bactericidal Concentration (MBC) are obtained. Clarithromycin, moxifloxacin, amikacin, rifampicin, rifabutin, ciprofloxacin and metronidazole are used as positive controls. The test strains are provided by KnowBio company, and the Chinese clinically isolated strains are derived from Shanghai Pulmonary Hospital.
The inhibitory test of this embodiment is performed by the micro broth dilution method using two different culture mediums: (1) MH (Mueller-Hinton) micro broth dilution method: using MH culture medium (or culture solution), wherein the concentration of calcium and magnesium ions in MH broth (cation-adjusted) is consistent with that in the Guideline of the Clinical and Laboratory Standards Institute (CLSI; M7-A7); and (2) 7H9 micro broth dilution method: using 7H9 culture medium (or culture solution, provided by Sigma-Aldrich).

[4] = system: Mycobacterium intracellulare; experiment: MIC, micro broth dilution with resazurin readout; type: cell-based; conditions: MH Culture Medium, read-out: Minimum Inhibitory Concentration (MIC)
Mycobacterium kansasii [5] = experiment: MIC, micro broth dilution with resazurin readout; type: cell-based; conditions: read-out: Minimum Inhibitory Concentration (MIC)
Mycobacterium avium [6] = experiment: MBC, plating of MIC wells and CFU count; type: cell-based; conditions: read-out: Minimum Bactericidal Concentration (MBC)
Mycobacterium fortuitum = experiment: MIC, micro broth dilution with resazurin readout; type: cell-based; conditions: Mycolicibacterium fortuitum, MH Culture Medium, read-out: Minimum Inhibitory Concentration (MIC)
[7] = system: Mycobacterium massiliense; experiment: MIC, micro broth dilution with resazurin readout; type: cell-based; conditions: Mycobacteroides abscessus, MH Culture Medium, read-out: Minimum Inhibitory Concentration (MIC)
Mycobacterium abscessus [8] = experiment: MBC, plating of MIC wells and CFU count; type: cell-based; conditions: Mycobacteroides abscessus, read-out: Minimum Bactericidal Concentration (MBC)
[9] = 7H9 Broth, Mycobacterium avium Rough
[10] = 7H9 Broth, Mycobacterium avium Smooth
[11] = MH Broth, Mycobacterium avium Rough
[12] = MH Broth, Mycobacterium avium Smooth
[13] = MH Culture Medium, Avium (standard strain)
[14] = MH Culture Medium, clinically isolated strain Avium (S31)
[15] = MH Culture Medium, clinically isolated strain Avium (S123)
[16] = MH Culture Medium, clinically isolated strain Avium (S559)
[17] = MH Culture Medium, clinically isolated strain Avium (S568)
[18] = MH Culture Medium, clinically isolated strain Avium (S577)
[19] = MH Culture Medium, clinically isolated strain Avium (S597)
[20] = MH Culture Medium, clinically isolated strain Avium (S602)
[21] = Intracellulare (standard strain)
[22] = clinically isolated strain Intracellulare (S90)
[23] = clinically isolated strain Intracellulare (S261)
[24] = clinically isolated strain Intracellulare (S269)
[25] = clinically isolated strain Intracellulare (S290)
[26] = clinically isolated strain Intracellulare (S291)
[27] = clinically isolated strain Intracellulare (S298)
[28] = clinically isolated strain Intracellulare (S442)
[29] = clinically isolated strain Intracellulare (S541)
[30] = clinically isolated strain Intracellulare (S623)
[31] = clinically isolated strain Intracellulare (ZPS)
[32] = MH Culture Medium, Kansasii (standard strain)
[33] = MH Culture Medium, clinically isolated strain Kansasii (S9)
[34] = MH Culture Medium, clinically isolated strain Kansasii (S199)
[35] = MH Culture Medium, clinically isolated strain Kansasii (S520)
[36] = MH Culture Medium, clinically isolated strain Kansasii (S609)
[37] = clinically isolated strain Fortuitum (S103)
[38] = clinically isolated strain Fortuitum (S111)
[39] = clinically isolated strain Massiliense (D10)
[40] = clinically isolated strain Massiliense (D14)
[41] = clinically isolated strain Massiliense (D18)

Compound: CO[C@H]1/C=C/O[C@@]2(C)Oc3c(C)c(O)c4c(c3C2=O)C2=NC3(CCN(CCn5c([N+](=O)[O-])cnc5C)CC3)NC2=C(NC(=O)/C(C)=C\C=C\[C@H](C)[C@H](O)[C@@H](C)[C@@H](O)[C@@H](C)[C@H](OC(C)=O)[C@@H]1C)C4=O [Compound I]
- MBC (Mycobacterium kansasii [1]; 7H9 Broth): 8 µg/mL (≈ 8.47 µM)
- MBC (Mycobacterium kansasii [1]; MH Broth): 2 µg/mL (≈ 2.12 µM)
- MIC (Mycobacterium abscessus [2]; 7H9 Broth): 1 µg/mL (≈ 1.06 µM)
- MIC (Mycobacterium abscessus [2]; MH Broth): 1 µg/mL (≈ 1.06 µM)
- MIC (Mycobacterium avium [3]; [9]): 4 µg/mL (≈ 4.24 µM)
- MIC (Mycobacterium avium [3]; [10]): 4 µg/mL (≈ 4.24 µM)
- MIC (Mycobacterium avium [3]; [11]): 4 µg/mL (≈ 4.24 µM)
- MIC (Mycobacterium avium [3]; [12]): 4 µg/mL (≈ 4.24 µM)
- MIC (Mycobacterium avium [3]; [13]): 0.0625 µg/mL (≈ 0.0662 µM)
- MIC (Mycobacterium avium [3]; [14]): 0.0625 µg/mL (≈ 0.0662 µM)
- MIC (Mycobacterium avium [3]; [15]): 0.0625 µg/mL (≈ 0.0662 µM)
- MIC (Mycobacterium avium [3]; [16]): 0.0625 µg/mL (≈ 0.0662 µM)
- MIC (Mycobacterium avium [3]; [17]): 0.25 µg/mL (≈ 0.265 µM)
- MIC (Mycobacterium avium [3]; [18]): 0.0625 µg/mL (≈ 0.0662 µM)
- MIC (Mycobacterium avium [3]; [19]): 0.125 µg/mL (≈ 0.132 µM)
- MIC (Mycobacterium avium [3]; [20]): 0.0625 µg/mL (≈ 0.0662 µM)
- MIC (Mycodacterium chelonei): 32 µg/mL (≈ 33.9 µM)
- in-vitro activity against NTM (NTM): effective and broad in-vitro activity against NTM
- MIC [4, 21]: 0.0625 µg/mL (≈ 0.0662 µM)
- MIC [4, 22]: 0.25 µg/mL (≈ 0.265 µM)
- MIC [4, 23]: 0.25 µg/mL (≈ 0.265 µM)
- MIC [4, 24]: 0.125 µg/mL (≈ 0.132 µM)
- MIC [4, 25]: 0.25 µg/mL (≈ 0.265 µM)
- MIC [4, 26]: 0.125 µg/mL (≈ 0.132 µM)
- MIC [4, 27]: 0.25 µg/mL (≈ 0.265 µM)
- MIC [4, 28]: 0.0625 µg/mL (≈ 0.0662 µM)
- MIC [4, 29]: 0.125 µg/mL (≈ 0.132 µM)
- MIC [4, 30]: 0.25 µg/mL (≈ 0.265 µM)
- MIC [4, 31]: 0.0625 µg/mL (≈ 0.0662 µM)
- MIC (Mycobacterium kansasii [5]; 7H9 Broth): 2 µg/mL (≈ 2.12 µM)
- MIC (Mycobacterium kansasii [5]; MH Broth): 2 µg/mL (≈ 2.12 µM)
- MIC (Mycobacterium kansasii [5]; [32]): 0.0625 µg/mL (≈ 0.0662 µM)
- MIC (Mycobacterium kansasii [5]; [33]): 0.0625 µg/mL (≈ 0.0662 µM)
- MIC (Mycobacterium kansasii [5]; [34]): 0.0625 µg/mL (≈ 0.0662 µM)
- MIC (Mycobacterium kansasii [5]; [35]): 0.0625 µg/mL (≈ 0.0662 µM)
- MIC (Mycobacterium kansasii [5]; [36]): 0.0625 µg/mL (≈ 0.0662 µM)
- MBC (Mycobacterium avium [6]; [9]): 4 µg/mL (≈ 4.24 µM)
- MBC (Mycobacterium avium [6]; [10]): 16 µg/mL (≈ 16.9 µM)
- MBC (Mycobacterium avium [6]; [11]): 4 µg/mL (≈ 4.24 µM)
- MBC (Mycobacterium avium [6]; [12]): 16 µg/mL (≈ 16.9 µM)
- MIC (Mycobacterium fortuitum; Fortuitum (standard strain)): 16 µg/mL (≈ 16.9 µM)
- MIC (Mycobacterium fortuitum; [37]): > 64 µg/mL
- MIC (Mycobacterium fortuitum; [38]): 4 µg/mL (≈ 4.24 µM)
- MIC [7, 39]: 64 µg/mL (≈ 67.8 µM)
- MIC [7, 40]: 64 µg/mL (≈ 67.8 µM)
- MIC [7, 41]: 64 µg/mL (≈ 67.8 µM)
- MBC (Mycobacterium abscessus [8]; 7H9 Broth): 1 µg/mL (≈ 1.06 µM)
- MBC (Mycobacterium abscessus [8]; MH Broth): 16 µg/mL (≈ 16.9 µM)

Compound: CO[C@H]1/C=C/O[C@@]2(C)Oc3c(C)c(O)c4c(O)c(c(/C=N/N5CCN(C)CC5)c(O)c4c3C2=O)NC(=O)/C(C)=C\C=C\[C@H](C)[C@H](O)[C@@H](C)[C@@H](O)[C@@H](C)[C@H](OC(C)=O)[C@@H]1C [Rifampicin]
- MBC (Mycobacterium kansasii [1]; 7H9 Broth): 4 µg/mL (≈ 4.86 µM)
- MBC (Mycobacterium kansasii [1]; MH Broth): 4 µg/mL (≈ 4.86 µM)
- MIC (Mycobacterium abscessus [2]; 7H9 Broth): > 64 µg/mL
- MIC (Mycobacterium abscessus [2]; MH Broth): > 64 µg/mL
- MIC (Mycobacterium avium [3]; [9]): 8 µg/mL (≈ 9.72 µM)
- MIC (Mycobacterium avium [3]; [10]): 0.5 µg/mL (≈ 0.608 µM)
- MIC (Mycobacterium avium [3]; [11]): 8 µg/mL (≈ 9.72 µM)
- MIC (Mycobacterium avium [3]; [12]): 1 µg/mL (≈ 1.22 µM)
- MIC (Mycobacterium avium [3]; [13]): 0.25 µg/mL (≈ 0.304 µM)
- MIC (Mycobacterium avium [3]; [14]): 0.0625 µg/mL (≈ 0.0759 µM)
- MIC (Mycobacterium avium [3]; [15]): 8 µg/mL (≈ 9.72 µM)
- MIC (Mycobacterium avium [3]; [16]): 0.125 µg/mL (≈ 0.152 µM)
- MIC (Mycobacterium avium [3]; [17]): 4 µg/mL (≈ 4.86 µM)
- MIC (Mycobacterium avium [3]; [18]): 0.125 µg/mL (≈ 0.152 µM)
- MIC (Mycobacterium avium [3]; [19]): 8 µg/mL (≈ 9.72 µM)
- MIC (Mycobacterium avium [3]; [20]): 2 µg/mL (≈ 2.43 µM)
- MIC (Mycodacterium chelonei): > 64 µg/mL
- MIC [4, 21]: 0.25 µg/mL (≈ 0.304 µM)
- MIC [4, 22]: 8 µg/mL (≈ 9.72 µM)
- MIC [4, 23]: 16 µg/mL (≈ 19.4 µM)
- MIC [4, 24]: 4 µg/mL (≈ 4.86 µM)
- MIC [4, 25]: 4 µg/mL (≈ 4.86 µM)
- MIC [4, 26]: 4 µg/mL (≈ 4.86 µM)
- MIC [4, 27]: 4 µg/mL (≈ 4.86 µM)
- MIC [4, 28]: 2 µg/mL (≈ 2.43 µM)
- MIC [4, 29]: 16 µg/mL (≈ 19.4 µM)
- MIC [4, 30]: 8 µg/mL (≈ 9.72 µM)
- MIC [4, 31]: 2 µg/mL (≈ 2.43 µM)
- MIC (Mycobacterium kansasii [5]; 7H9 Broth): 16 µg/mL (≈ 19.4 µM)
- MIC (Mycobacterium kansasii [5]; MH Broth): 16 µg/mL (≈ 19.4 µM)
- MIC (Mycobacterium kansasii [5]; [32]): 0.125 µg/mL (≈ 0.152 µM)
- MIC (Mycobacterium kansasii [5]; [33]): 0.125 µg/mL (≈ 0.152 µM)
- MIC (Mycobacterium kansasii [5]; [34]): 0.0625 µg/mL (≈ 0.0759 µM)
- MIC (Mycobacterium kansasii [5]; [35]): 0.0625 µg/mL (≈ 0.0759 µM)
- MIC (Mycobacterium kansasii [5]; [36]): 0.0625 µg/mL (≈ 0.0759 µM)
- MBC (Mycobacterium avium [6]; [9]): > 64 µg/mL
- MBC (Mycobacterium avium [6]; [10]): 4 µg/mL (≈ 4.86 µM)
- MBC (Mycobacterium avium [6]; [12]): 4 µg/mL (≈ 4.86 µM)
- MIC (Mycobacterium fortuitum; Fortuitum (standard strain)): > 64 µg/mL
- MIC (Mycobacterium fortuitum; [37]): > 64 µg/mL
- MIC (Mycobacterium fortuitum; [38]): 64 µg/mL (≈ 77.8 µM)
- MIC [7, 39]: > 64 µg/mL
- MIC [7, 40]: > 64 µg/mL
- MIC [7, 41]: > 64 µg/mL
- MBC (Mycobacterium abscessus [8]; 7H9 Broth): > 64 µg/mL
- MBC (Mycobacterium abscessus [8]; MH Broth): > 64 µg/mL
